The text below walks through data of US6066672A, “Amino compounds and angiotensin IV receptor agonists” (Taisho Pharmaceutical Co., Ltd., priority 1996, dated 2000).

Molecules are shown by their SMILES. Counter-ions that a name gives are not always drawn.

This assay has as its target T1, angiotensin IV receptor (Cavia porcellus, UniProt H0VNM7).
T1 construct: The Hartley guinea pig hippocampus was homogenized in a 50 mM Tris hydrochloride buffer solution; from tissue; host or cells: Hartley guinea pig hippocampus, crude membrane (48,000 x g precipitate)
T1 sequence (H0VNM7 1-1025): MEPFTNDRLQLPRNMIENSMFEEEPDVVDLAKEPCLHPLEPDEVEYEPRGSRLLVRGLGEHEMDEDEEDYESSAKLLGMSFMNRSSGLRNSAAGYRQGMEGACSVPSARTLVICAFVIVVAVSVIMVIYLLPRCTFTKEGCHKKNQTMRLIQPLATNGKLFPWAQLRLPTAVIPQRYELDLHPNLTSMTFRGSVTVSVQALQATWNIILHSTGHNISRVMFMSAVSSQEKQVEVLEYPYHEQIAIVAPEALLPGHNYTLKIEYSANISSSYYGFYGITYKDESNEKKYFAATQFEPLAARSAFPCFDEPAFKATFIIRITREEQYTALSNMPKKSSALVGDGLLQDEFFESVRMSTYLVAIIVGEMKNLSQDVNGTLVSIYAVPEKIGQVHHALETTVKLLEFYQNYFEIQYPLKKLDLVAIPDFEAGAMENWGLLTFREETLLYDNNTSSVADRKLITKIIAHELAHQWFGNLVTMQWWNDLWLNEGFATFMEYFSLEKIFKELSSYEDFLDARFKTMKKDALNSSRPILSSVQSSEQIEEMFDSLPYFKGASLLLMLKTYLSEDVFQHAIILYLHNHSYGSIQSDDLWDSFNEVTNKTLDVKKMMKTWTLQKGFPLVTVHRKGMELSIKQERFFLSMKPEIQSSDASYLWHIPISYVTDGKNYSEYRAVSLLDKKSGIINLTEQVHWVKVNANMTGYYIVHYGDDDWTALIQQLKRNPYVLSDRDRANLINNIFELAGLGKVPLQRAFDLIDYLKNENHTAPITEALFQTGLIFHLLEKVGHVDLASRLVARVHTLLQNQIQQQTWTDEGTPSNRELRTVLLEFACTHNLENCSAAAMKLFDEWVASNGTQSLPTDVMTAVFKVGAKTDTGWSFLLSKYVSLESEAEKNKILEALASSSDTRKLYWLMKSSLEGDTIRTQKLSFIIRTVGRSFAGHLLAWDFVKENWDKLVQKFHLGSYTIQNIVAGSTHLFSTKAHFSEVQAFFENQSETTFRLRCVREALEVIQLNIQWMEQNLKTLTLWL
In words: binding capability to angiotensin IV receptor, inhibition of 125I-angiotensin IV binding to guinea pig hippocampus membrane. The settings on record: 0.2 nM 125I-angiotensin IV, Hartley guinea pig hippocampus crude membrane, 37° C., 90 minutes, pH 7.4. On the procedure: The binding capability to angiotensin IV receptor was measured by using Hartley guinea pig hippocampus referring to the method described by Miller-Wing et al., J. Pharmacol. Exp. Ther., vol. 266, pp.1718 (1993). The Hartley guinea pig hippocampus was homogenized in a 50 mM Tris hydrochloride buffer solution (pH 7.4) containing 1 mM ethylenediamine-N,N,N',N'-tetraacetic acid (EDTA) and 100 μM phenylmethanesulfonyl fluoride (PMSF). After centrifugation at 900× g, the resulting supernatant was further centrifuged at 48,000× g. The precipitate was washed once with the same buffer solution and suspended in 50 mM Tris hydrochloride buffer solution (pH 7.4) containing 150 mM sodium chloride, 1 mM EDTA, 100 μM PMSF and 0.1% bovine serum albumin (BSA) to give a protein concentration of […] as a crude membrane specimen. […] The radioactivity on the filter paper was measured by using a gamma-counter. The non-specific bond was measured in the presence of 1 μM angiotensin IV, and the specific bond was calculated by subtracting the non-specific bond from the total bond.
In general, IC50 refers to the concentration that gives 50% inhibition. Consider `CCCC[C@H](N)CN[C@@H](Cc1ccc(O)cc1)C(=O)N[C@H](/C=C/c1ccc(C)cc1)[C@@H](C)CC` [Example 1, N'-[(S)-2-aminohexyl]-N-[(S)-(E)-3-(4-methylphenyl)-1-[(S)-1-methylpropyl]-2-propenyl]-L-tyrosinamide dihydrochloride], for which the IC50 worked out at 0.59 nM. As to `CCCC[C@H](N)CN[C@@H](Cc1ccc(O)cc1)C(=O)N[C@H](CCc1ccc(C)cc1)[C@@H](C)CC` [Example 2, N'-[(S)-2-aminohexyl]-N-[(1R,2S)-2-methyl-1-[2-(4-methylphenyl)ethyl]butyl]-L-tyrosinamide dihydrochloride], the IC50 came to 4.13 nM. With `CCC/C=C\[C@@H](NC(=O)[C@H](Cc1ccc(O)cc1)NC[C@@H](N)CCCC)[C@@H](C)CC` [Example 3, N'-[(S)-2-aminohexyl]-N-[(S)-(Z)-1-[(S)-1-methylpropyl]-2-hexenyl]-L-tyrosinamide dihydrochloride] the figure was 12.6 nM; with `CCCCC[C@@H](NC(=O)[C@H](Cc1ccc(O)cc1)NC[C@@H](N)CCCC)[C@@H](C)CC` [Example 4, N'-[(S)-2-aminohexyl]-N-[(R)-1-[(S)-1-methylpropyl]hexyl]-L-tyrosinamide dihydrochloride], 11.5 nM. For `CCCC[C@H](N)CN[C@@H](Cc1ccc(O)cc1)C(=O)N[C@H](/C=C\Cc1ccccc1)CC(C)C` [Example 5, N'-[(S)-2-aminohexyl]-N-[(S)-(Z)-1-(2-methylpropyl)-4-phenyl-2-butenyl]-L-tyrosinamide dihydrochloride], the concentration for half-maximal inhibition (IC50) turned out to be 7.22 nM. Take `CCCC[C@H](N)CN[C@@H](Cc1ccc(O)cc1)C(=O)N[C@H](CCCc1ccccc1)CC(C)C` [Example 6, N'-[(S)-2-aminohexyl]-N-[(R)-3-methyl-1-(3-phenylpropyl)butyl]-L-tyrosinamide dihydrochloride]: the IC50 was found to be 18.3 nM. With `CCCC[C@H](N)CN[C@@H](Cc1ccc(O)cc1)C(=O)N[C@H](/C=C/c1ccncc1)CC(C)C` [Example 7, N'-[(S)-2-aminohexyl]-N-[(S)-(E)-1-(2-methylpropyl)-3-(4-pyridyl)-2-propenyl]-L-tyrosinamide trihydrochloride] the figure was 0.93 nM; with `CCCC[C@H](N)CN[C@@H](Cc1ccc(O)cc1)C(=O)N[C@H](CCc1ccncc1)CC(C)C` [Example 8, N'-[(S)-2-aminohexyl]-N-[(R)-3-methyl-1-[2-(4-pyridyl)ethyl]butyl]-L-tyrosinamide trihydrochloride], 15.2 nM.

`CCCC[C@H](N)CN[C@@H](Cc1ccc(O)cc1)C(=O)N[C@@H](/C=C/c1ccncc1)CC(C)C` [Example 9, N'-[(S)-2-aminohexyl]-N-[(R)-(E)-1-(2-methylpropyl)-3-(4-pyridyl)-2-propenyl]-L-tyrosinamide trihydrochloride] came in with an IC50 of 22.1 nM. With `CCCC[C@H](N)CN[C@@H](Cc1ccc(O)cc1)C(=O)N[C@@H](CCc1ccncc1)CC(C)C` [Example 10, N'-[(S)-2-aminohexyl]-N-[(S)-3-methyl-1-[2-(4-pyridyl)ethyl]butyl]-L-tyrosinamide trihydrochloride] the figure was 81.1 nM; with `CCCC[C@H](N)CN[C@@H](Cc1ccc(O)cc1)C(=O)N[C@H](/C=C/c1ccc(C(=O)OC)cc1)CC(C)C` [Example 11, N'-[(S)-2-aminohexyl]-N-[(S)-(E)-3-(4-methoxycarbonylphenyl)-1-(2-methylpropyl)-2-propenyl]-L-tyrosinamide dihydrochloride], 1.23 nM; with `CCCC[C@H](N)CN[C@@H](Cc1ccc(O)cc1)C(=O)N[C@H](CCc1ccc(C(=O)OC)cc1)CC(C)C` [Example 12, N'-[(S)-2-aminohexyl]-N-[(R)-1-[2-(4-methoxycarbonylphenyl)ethyl]-3-methylbutyl]-L-tyrosinamide dihydrochloride], 35.1 nM. Consider `CCCC[C@H](N)CN[C@@H](Cc1ccc(O)cc1)C(=O)N[C@H](/C=C/c1ccc(C(=O)O)cc1)CC(C)C` [Example 13, N'-[(S)-2-aminohexyl]-N-[(S)-(E)-3-(4-carboxyphenyl)-1-(2-methylpropyl)-2-propenyl]-L-tyrosinamide dihydrochloride], for which the IC50 turned out to be 1.79 nM. With `CCCC[C@H](N)CN[C@@H](Cc1ccc(O)cc1)C(=O)N[C@H](CCc1ccc(C(=O)O)cc1)CC(C)C` [Example 14, N'-[(S)-2-aminohexyl]-N-[(R)-3-methyl-1-[2-(4-carboxyphenyl)ethyl]butyl]-L-tyrosinamide dihydrochloride] the figure was 26.6 nM. With `CCCC[C@H](N)CN[C@@H](Cc1ccc(O)cc1)C(=O)N[C@H](/C=C/c1cccc2ccccc12)CC(C)C` [Example 15, N'-[(S)-2-aminohexyl]-N-[(S)-(E)-1-(2-methylpropyl)-3-(1-naphthyl)-2-propenyl]-L-tyrosinamide dihydrochloride] the figure was 3.76 nM; with `CCCC[C@H](N)CN[C@@H](Cc1ccc(O)cc1)C(=O)N[C@H](CCc1cccc2ccccc12)CC(C)C` [Example 16, N'-[(S)-2-aminohexyl]-N-[(R)-3-methyl-1-[2-(1-naphthyl)ethyl]butyl]-L-tyrosinamide dihydrochloride], 3.43 nM. `CCCC[C@H](N)CN[C@@H](Cc1ccc(O)cc1)C(=O)N[C@H](/C=C/c1ccccc1)CC(C)C` [Example 17, N'-[(S)-2-aminohexyl]-N-[(S)-(E)-1-(2-methylpropyl)-3-phenyl-2-propenyl]-L-tyrosinamide dihydrochloride] came in with an IC50 of 0.65 nM. With `CCCC[C@H](N)CN[C@@H](Cc1ccc(O)cc1)C(=O)N[C@H](CCc1ccccc1)CC(C)C` [Example 18, N'-[(S)-2-aminohexyl]-N-[(R)-3-methyl-1-[2-phenylethyl]butyl]-L-tyrosinamide dihydrochloride] the figure was 8.7 nM.

As for `CCCC[C@H](N)CN[C@@H](Cc1ccc(O)cc1)C(=O)N[C@H](/C=C/c1ccc(Cl)cc1)CC(C)C` [Example 19, N'-((S)-2-aminohexyl]-N-[(S)-(E)-3-(4-chlorophenyl)-1-(2-methylpropyl)-2-propenyl]-L-tyrosinamide dihydrochloride], the IC50 was 0.53 nM. With `CCCC[C@H](N)CN[C@@H](Cc1ccc(O)cc1)C(=O)N[C@H](/C=C\c1ccc(Cl)cc1)CC(C)C` [Example 20, N'-[(S)-2-aminohexyl]-N-[(S)-(Z)-3-(4-chlorophenyl)-1-(2-methylpropyl)-2-propenyl]-L-tyrosinamide dihydrochloride] the figure was 5.46 nM; with `CCCC[C@H](N)CN[C@@H](Cc1ccc(O)cc1)C(=O)N[C@H](/C=C/c1ccc(-c2ccccc2)cc1)CC(C)C` [Example 21, N'-[(S)-2-aminohexyl]-N-[(S)-(E)-3-([1,1'-biphenyl]-4-yl)-1-(2-methylpropyl)-2-propenyl]-L-tyrosinamide dihydrochloride], 6 nM. `CCCC[C@H](N)CN[C@@H](Cc1ccc(O)cc1)C(=O)N[C@H](CCc1ccc(-c2ccccc2)cc1)CC(C)C` [Example 22, N'-[(S)-2-aminohexyl]-N-[(R)-1-[2-([1,1'-biphenyl]-4-yl)ethyl]-3-methylbutyl]-L-tyrosinamide dihydrochloride] had an IC50 of 89 nM. Against the preceding compound, the IC50 is about 15-fold higher. With `CCCC[C@H](N)CN[C@@H](Cc1ccc(O)cc1)C(=O)N[C@H](/C=C/c1ccc2ccccc2n1)CC(C)C` [Example 23, N'-[(S)-2-aminohexyl]-N-[(S)-(E)-3-(2-quinolyl)-1-(2-methylpropyl)-2-propenyl]-L-tyrosinamide trihydrochloride] the figure was 0.53 nM.
